{
  "source": "patent US20210087279A1",
  "about": "“REGULATABLE CHIMERIC ANTIGEN RECEPTOR” (Novartis AG, priority 2014, published 2021)",
  "format_in_all_cases": "cell-based",
  "key": {"[1]": {"test_system": "reporter under NFAT control in JNL cells", "test": "Dimerization molecule dose response, single vector construct 143775 in JNL cells, CD19 target", "conditions": "nM to sub-nM doses", "source_text": "The constructs and viral particles were made and tested essentially as described in Example 11. Viral particles were introduced into JNL cells and evaluated for activity essentially as described in Example 1 except that the target was CD19 (as opposed to EGFRviii).\nConstruct 143775 was introduced into cells and the affect of dimerization molecule concentration on activation evaluated essentially as described in Example 14."}, "[2]": {"test_system": "NFAT activity in Jurkat cells with NFAT-LUC reporter (JNL)", "test": "Activation of RCAR with extracellular FKBP/FRB switch by RAD001", "conditions": "for RAD001 dose at which NFAT activity peaked: 0-50 nM tested", "protocol": "In this example, the activation of RCAR with an extracellular switch was evaluated in the presence of the dimerization molecule RAD001. Four RCARs were tested: two half switch constructs, e.g., with the dimerization switch in both orientations (FIG. 34A), and two full switch constructs, e.g., with the dimerization switch in both orientations (FIG. 34B), where the dimerization switch is an extracellular FKBP/FRB dimerization, as depicted in FIGS. 34A and 34B. In the half-switch constructs, the antigen binding member comprises a scFV domain, an extracellular switch domain, a transmembrane domain, an intracellular costimulatory signaling domain 4-1BB, and the intracellular signaling member comprises an extracellular switch domain, a transmembrane domain, and an intracellular primary signaling domain, CD3zeta (FIG. 34A). In the full-switch constructs, the antigen binding member comprises a scFv domain, an extracellular switch domain, and a transmembrane domain, and the intracellular signaling member comprises an extracellular switch domain, a transmembrane domain, an intracellular costimulatory signaling domain, 4-1BB, and an intracellular primary signaling domain, CD3zeta (FIG. 34B).\nThe RCAR constructs were expressed in a Jurkat reporter cell line. Jurkat cells with NFAT-LUC reporter (JNL) were grown to the density of 0.5×10^6/ml in Jurkat cell growth media with puromycin at 0.5 μg/ml. For each transfection 2.5×10^6 cells were spin down at 100 g for 10 minutes. Two μg of DNA per RCAR construct were used per transfection. Amaxa Nucleofector solution V and supplement I was mixed and 100 μl was added into the tube with DNA construct. The mixture was then added to the cells and transferred to the electroporation cuvette. Electroporation was done under setting X-001 using Amaxa Nucleofector II Device. […]\nAfter one hour, RAD001 compound was applied at various concentrations: 0 nM, 0.01 nM, 0.03 nM, 0.1 nM, 0.3 nM, 1 nM, 5 nM, and 50 nM. […] The samples were incubated for 5 min at 37° C. and then luminescence was measured using Envision plate reader."}, "[3]": {"test_system": "NFAT activity in Jurkat cells with NFAT-LUC reporter (JNL)", "test": "Activation of RCAR half switches (intracellular FKBP/FRB) by RAD001", "conditions": "both half switches (CD28 or 4-1BB); 0-10 nM tested", "protocol": "In this example, the activation of a RCAR half switch was evaluated in the presence of the dimerization molecule RAD001. Two RCAR constructs were tested where the dimerization switch is an intracellular FKBP/FRB dimerization switch, and the switch domains are located in both orientations with respect to the antigen binding member and the intracellular member. For example, the antigen binding member comprises a scFV domain, a transmembrane domain, an intracellular switch domain, and an intracellular costimulatory signaling domain; and the intracellular signaling member comprises an […] switch domain, a transmembrane domain, and an intracellular primary signaling domain, e.g., CD3zeta (FIG. 36A).\nJurkat cells with NFAT-LUC reporter (JNL) were grown to the density of 0.5×10^6/ml in Jurkat cell growth media with puromycin at 0.5 μg/ml. For each transfection 2.5×10^6 cells were spin down at 100 g for 10 minutes. Two μg of DNA per construct were used per transfection. […]\nAfter one hour, RAD001 compound was delivered at 50 nM when testing RCARs with different costimulatory signaling domains (FIGS. 36A-B), or various concentrations: 0 nM, 0.01 nM, 0.03 nM, 0.1 nM, 0.3 nM, 1 nM, 3 nM, and 10 nM (FIGS. 37A-B). […] The samples were incubated for 5 min at 37° C. and then luminescence is measured using Envision plate reader."}, "[4]": {"test_system": "luciferase-expressing Nalm6 (human pre-B ALL) cell line", "test": "Killing assay with RCAR-expressing primary T cells", "conditions": "effector:target 1:1; 20 hours", "protocol": "The ability for RCAR T cells (RCAR T cell generation described above) to target and kill tumor cells was assessed in vitro. A luciferase-based assay was used, with tumor cell lines expressing luciferase reporters. Target cells (tumor cells) were plated at 25,000 cells/well. RCAR T cells, as well as standard CAR-expressing T cells and T cells expressing no CARs were added at the effector:target ratio 1:1 in duplicates. Additionally, RAD001 was added in seven 5-fold dilution steps, starting at 50 nM. One duplicate received pure medium, no RAD001. The cells were cultured for 20 hours, after which the luminescence of each well was detected to determine the percentage of target cells killed (BrightGlo, Promega protocol). Specific killing (%)=[…]. The luciferase-expressing Nalm6 (human pre-B ALL) cell line was used as the target cell."}},
  "data": [
    {"smiles": "CO[C@H]1C[C@@H]2CC[C@@H](C)[C@@](O)(O2)C(=O)C(=O)N2CCCC[C@H]2C(=O)O[C@H]([C@H](C)C[C@@H]2CC[C@@H](OCCO)[C@H](OC)C2)CC(=O)[C@H](C)/C=C(\\C)[C@@H](O)[C@@H](OC)C(=O)[C@H](C)C[C@H](C)/C=C/C=C/C=C/1C", "note": "[RAD001, (1R,9S,12S,15R,16E,18R,19R,21R,23S,24E,26E,28E,30S,32S,35R)-1,18-dihydroxy-12-{(1R)-2-[(1S,3R,4R)-4-(2-hydroxyethoxy)-3-methoxycyclohexyl]-1-methylethyl}-19,30-dimethoxy-15,17,21,23,29,35-hexamethyl-11,36-dioxa-4-aza-tricyclo[30.3.1.04,9]hexatriaconta-16,24,26,28-tetraene-2,3,10,14,20-pentaone]", "values": [
      {"measurement": "activation", "setting": "[1]", "result": "effective at a broad range of concentrations"},
      {"measurement": "RAD001 dose at which NFAT activity peaked", "setting": "[2]; extracellular RCAR full switches", "result": 1, "unit": "nM"},
      {"measurement": "inhibition of NFAT activity at higher dosages", "setting": "[2]; extracellular half switch 1, 5 nM and 50 nM", "result": "no inhibition of activity"},
      {"measurement": "RAD001 dose at which NFAT activity peaked", "setting": "[2]; extracellular half switch 2", "result": 1, "unit": "nM"},
      {"measurement": "RAD001 concentration at which NFAT activity peaked", "setting": "[3]", "result": 1, "unit": "nM"},
      {"measurement": "RAD001 concentration at maximal killing by RCAR-expressing T cells", "setting": "[4]", "result": "around 1 nM"}
    ]}
  ]
}
